Measured values from paper PMC9019904, “AD Informer Set: Chemical tools to facilitate Alzheimer's disease drug discovery” (Alzheimer's & Dementia : Translational Research & Clinical …, 2022).

How the values were obtained:
[1] = test system: HMC3 (human microglia) cell line; test: pHrodo-myelin phagocytosis/cell viability high content imaging assay: viability (cell count, nuclear area, nuclear intensity); details: 48 hours treatment
Experimental: (§1) All AD Informer Set compounds were tested in two immortalized microglial cell lines, murine (BV2), and human (HMC3), in a high‐content imaging assay in duplicate by the Chu lab. Experimental details and all data can be found as supporting information files.
(§2) The role of microglia in AD has been well documented and was thus chosen as a cell type in which to profile the AD Informer Set.[43], [44], [45] As an example, neuroinflammation, as detected by the presence of activated complement proteins, interleukins, cytokines, and chemokines in microglia and astrocytes, is increased early in AD and is considered pathogenic due to its chronic nature.[33], [34] Cytotoxic effects can be assessed by considering multiple parameters.
(§3) Microglial viability and phagocytosis studies: The pHrodo-myelin phagocytosis/cell viability assay, modified based on a published method, was run with immortalized BV2 (mouse microglia) and HMC3 (human microglia) cell lines in the Chu lab at IUSM. The 384-well plate high content analysis assay with BV2 and HMC3 microglial cell lines is used to quantify both phagocytosis and cell viability simultaneously. High content imaging is performed with the ArrayScan automatic imaging system and imaging analysis done with the software on the system. After allowing cells to adhere overnight, they are treated with compounds for total 48 hours including final 20 hours seeded with pHrodo-myelin (labeled phagocytosis ligand, purified […]
(§4) (approximately 22 hours after pHrodo-myelin addition). Three measurements are extracted from the assay: 1) phagocytosis signal by mean total phagocytosis spot intensity per cell, 2) total cell counts per well as the main measurement of cell viability, and 3) mean average nuclear intensity per cell as profiling of cell health since apoptotic cells showing nuclear intensity increase (early apoptosis) and decrease (later apoptosis), respectively. These measurements allow for evaluation of compound-induced phagocytosis (1) and cytotoxicity (2 and 3). Assays were carried out at a single concentration (10 μM). Idelalisib (10 μM) and cytochalasin-D (4 μM) were used as positive controls in the assay. All data, which was an average of 2 data points, was normalized to untreated wells and reported as % control, which is included in the Supporting Information both as a raw data file and summarized in the compound/gene-annotation file.

[2] = test system: BV2 (mouse microglia) cell line; test: as above; details: 48 hours treatment
Experimental: as §1, §2, §3, §4

[3] = test system: HMC3 (human microglia) cell line; test: pHrodo-myelin phagocytosis/cell viability high content imaging assay: phagocytosis signal; format: cell-based
Experimental: (§5) It is important to note that stressed cells, such as those that are dying, are prone to show an increase in phagocytosis. […] MerTK promotes phagocytosis and thus MerTK inhibition is proposed to lead to inhibition of phagocytosis.[47]
(§6) phagocytosis and cell viability simultaneously. High content imaging is performed with the
(§7) (approximately 22 hours after pHrodo-myelin addition). Three measurements are extracted
(§8) intensity increase (early apoptosis) and decrease (later apoptosis), respectively. These
and 3). […]

[4] = test system: BV2 (mouse microglia) cell line; test: as above; format: cell-based
Experimental: as §5, §6, §7, §8
and 3). […]

[5] = HMC3, compound 10 uM, pHrodo-myelin
[6] = BV2, compound 10 uM, pHrodo-myelin
[7] = HMC3 cells, 10 uM compound, 48 hours treatment, pHrodo-myelin final 20 hours
[8] = BV2 cells, 10 uM compound, 48 hours treatment, pHrodo-myelin final 20 hours

Structure (SMILES)	1. Cell count (% control) ([1]; HMC3, compound 10 uM)	2. Nuclear Area (% Control) ([1]; HMC3, compound 10 uM)	3. Nuclear DNA Intensity (% control) ([1]; HMC3, compound 10 uM)	1. Cell count (% control) ([2]; BV2, compound 10 uM)	2. Nuclear Area (% Control) ([2]; BV2, compound 10 uM)	3. Nuclear DNA Intensity (% control) ([2]; BV2, compound 10 uM)	4. Phagocytosis (% control) [3, 5] [% control]	4. Phagocytosis (% control) [4, 6] [% control]	1. Cell count (% control) ([1]; HMC3 cells, 10 uM compound)	2. Nuclear Area (% Control) ([1]; HMC3 cells, 10 uM compound)	3. Nuclear DNA Intensity (% control) ([1]; HMC3 cells, 10 uM compound)	1. Cell count (% control) ([2]; BV2 cells, 10 uM compound)	2. Nuclear Area (% Control) ([2]; BV2 cells, 10 uM compound)	3. Nuclear DNA Intensity (% control) ([2]; BV2 cells, 10 uM compound)	4. Phagocytosis (% control) [3, 7] [% control]	4. Phagocytosis (% control) [4, 8] [% control]
O=C(O)CCCc1nc(-c2ccc(Cl)c(Cl)c2)c(-c2ccccc2)o1 [UNC8366A]	151.8	102.0	90.3	118.0	106.9	102.3	67.3	161.9	–	–	–	–	–	–	–	–
CCCCCCCCCCCCCCCCOCC(COCC(F)(F)F)OP(=O)([O-])OC.[Li+] (stereo not drawn) [UNC8441A]	76.1	97.9	109.2	80.6	107.7	98.9	43.1	99.7	–	–	–	–	–	–	–	–
O=c1ccc2c(OCCCCc3ccccc3)c3ccoc3cc2o1 [UNC10100197A]	124.6	99.9	93.8	106.2	106.9	106.7	60.7	195.3	–	–	–	–	–	–	–	–
O=c1[nH]c(=O)n([C@H]2C[C@H](O)[C@@H](CO)O2)cc1/C=C/Br [UNC10100235A]	–	–	–	–	–	–	–	–	104.1	100.7	100.8	94.9	117.1	94.6	83.2	118.4
O=C1CCc2cc(OCCCCc3nnnn3C3CCCCC3)ccc2N1 [UNC10100278A]	–	–	–	–	–	–	–	–	103.2	103.0	97.0	112.3	103.2	104.4	104.4	125.3
CN(C)CCCN1c2ccccc2Sc2ccc(Cl)cc21.Cl [UNC10100309D]	–	–	–	–	–	–	–	–	119.8	102.8	91.9	82.7	103.4	99.3	88.5	128.7
Clc1ccccc1C(c1ccccc1)(c1ccccc1)n1ccnc1 [UNC10100375A]	105.9	98.8	95.6	67.3	102.8	90.2	70.1	144.4	–	–	–	–	–	–	–	–
CC(C)(C(=O)O)c1ccc(C(O)CCCN2CCC(C(O)(c3ccccc3)c3ccccc3)CC2)cc1.Cl (stereo not drawn) [UNC10100548A]	–	–	–	–	–	–	–	–	137.5	98.8	98.9	104.5	103.6	104.0	96.5	106.0
CC(=O)N1CCN(c2ccc(OC[C@H]3CO[C@](Cn4ccnc4)(c4ccc(Cl)cc4Cl)O3)cc2)CC1 [UNC10100724A]	–	–	–	–	–	–	–	–	125.5	96.3	100.1	129.7	103.8	104.7	144.4	280.0
COc1cc([C@@H]2c3cc4c(cc3[C@H](O)[C@H]3COC(=O)[C@H]23)OCO4)cc(OC)c1OC [UNC10100984A]	–	–	–	–	–	–	–	–	62.5	67.2	227.6	10.9	112.2	112.7	32.6	197.0
O=c1[nH]c2ccccc2n1C1CCN(CCCC(c2ccc(F)cc2)c2ccc(F)cc2)CC1 [UNC10101002A]	97.6	104.3	96.0	77.1	99.5	98.4	140.6	134.9	–	–	–	–	–	–	–	–
CC/C(=C(\c1ccccc1)c1ccc(OCCN(C)C)cc1)c1ccccc1 [UNC10101258B]	–	95.6	91.8	72.9	98.7	95.7	72.6	320.1	–	–	–	–	–	–	–	–
CN1CCN(CCCN2c3ccccc3Sc3ccc(C(F)(F)F)cc32)CC1.Cl.Cl [UNC10101287D]	79.4	102.6	95.6	26.5	111.5	99.8	45.4	137.1	–	–	–	–	–	–	–	–
CCCCc1nc(Cl)c(CO)n1Cc1ccc(-c2ccccc2-c2nn[nH]n2)cc1 [UNC10121212D]	–	–	–	–	–	–	–	–	117.8	104.2	96.6	142.4	103.1	105.8	86.3	120.9
